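Tested at 5 concentrations; 48 h exposure; 96-well plates; endpoints linearly interpolated, else capped at highest concentration. GI50 is the concentration that inhibits growth by half.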 Active and inactive are the calls of the source. Rule as the data show it: active = GI50 up to about 1.1 µM and inactive = higher.
Key:
Assay in all cases: inhibition of tumour cell growth, NCI panel, 48 h
M14 = test system: M14
A498 = test system: A498
HCT-15 = test system: HCT-15
OVCAR-8 = test system: OVCAR-8
COLO 205 = test system: COLO 205
U-251 = test system: U-251
SK-OV-3 = test system: SK-OV-3
HCT-116 = test system: HCT-116
A549 = test system: A549
UO-31 = test system: UO-31
CAKI-1 = test system: CAKI-1
OVCAR-5 = test system: OVCAR-5
KM12 = test system: KM12
MOLT-4 = test system: MOLT-4
TK-10 = test system: TK-10
786-0 = test system: 786-0

Row | SMILES | GI50 (M14) | GI50 (A498) | GI50 (HCT-15) [µM] | GI50 (OVCAR-8) | GI50 (COLO 205) | GI50 (U-251) | GI50 (SK-OV-3) | GI50 (HCT-116) | GI50 (A549) | GI50 (UO-31) | GI50 (CAKI-1) | GI50 (OVCAR-5) | GI50 (KM12) | GI50 (MOLT-4) | GI50 (TK-10) | GI50 (786-0)
1 | Cc1ccc(CCC(=O)C(=O)O)s1 | > 100 µM (inactive) | 89.5 µM (inactive) | > 100 | > 100 µM (inactive) | > 100 µM (inactive) | 81.7 µM (inactive) | > 100 µM (inactive) | 41 µM (inactive) | > 100 µM (inactive) | > 100 µM (inactive) | 30.9 µM (inactive) | > 100 µM (inactive) | > 100 µM (inactive) | > 100 µM (inactive) | 78.7 µM (inactive) | –
2 | NC1CCCCC1 | – | > 562 µM (inactive) | 470 | 397 µM (inactive) | > 56.2 µM (inactive) | 313 µM (inactive) | – | 193 µM (inactive) | 194 µM (inactive) | – | – | 386 µM (inactive) | 211 µM (inactive) | 195 µM (inactive) | – | –
3 | O=C1C=CC=C/C1=C1/SC(c2ccccc2)=C(O)N1c1ccccc1 | – | – | > 100 | > 100 µM (inactive) | > 100 µM (inactive) | > 100 µM (inactive) | > 100 µM (inactive) | > 100 µM (inactive) | > 100 µM (inactive) | > 100 µM (inactive) | > 100 µM (inactive) | > 100 µM (inactive) | > 100 µM (inactive) | – | > 100 µM (inactive) | > 100 µM (inactive)
4 | O=C1CCC(c2ccccc2)=NN1c1nsc2ccccc12 | > 100 µM (inactive) | – | > 100 | > 100 µM (inactive) | > 100 µM (inactive) | > 100 µM (inactive) | – | 99.3 µM (inactive) | > 100 µM (inactive) | > 100 µM (inactive) | – | > 100 µM (inactive) | > 100 µM (inactive) | 60 µM (inactive) | > 100 µM (inactive) | –
5 | Cc1cc2c(ccc[n+]2[O-])[n+]([O-])c1 | > 100 µM (inactive) | – | > 100 | > 100 µM (inactive) | > 100 µM (inactive) | > 100 µM (inactive) | > 100 µM (inactive) | > 100 µM (inactive) | > 100 µM (inactive) | > 100 µM (inactive) | > 100 µM (inactive) | > 100 µM (inactive) | > 100 µM (inactive) | > 100 µM (inactive) | > 100 µM (inactive) | –
6 | COc1ccc(/C=N/n2c(C)nc3c(sc(=S)n3-c3ccccc3)c2=O)cc1 | – | 36 µM (inactive) | – | > 100 µM (inactive) | > 100 µM (inactive) | > 100 µM (inactive) | > 100 µM (inactive) | > 100 µM (inactive) | > 100 µM (inactive) | > 100 µM (inactive) | – | > 100 µM (inactive) | > 100 µM (inactive) | 34.4 µM (inactive) | > 100 µM (inactive) | –
7 | CC1[C@@H]2CC=C3C4CCC5Cc6nc7c(nc6C[C@@]5(C)C4CC(=O)[C@]32CO[C@@]1(O)C(O)CC(C)(C)O)CC1CCC2C3=C[C@H]4O[C@@]5(O[C@@](C)(CO)C[C@@H]5O)C(C)[C@@]4(O)[C@]3(C)[C@@H](O)CC2[C@]1(C)C7 (stereo not given in full) | – | 0.00108 µM (active) | 0.015 | 0.127 µM (active) | 0.015 µM (active) | < 0.00036 µM (active) | 0.00184 µM (active) | 0.023 µM (active) | 0.0031 µM (active) | 0.0259 µM (active) | 0.0132 µM (active) | 0.00773 µM (active) | 0.0181 µM (active) | 0.00157 µM (active) | – | –
8 | CC(C)(C)OC(=O)N1C2CCCC23O[C@@H]1c1cc2c(cc1C3=O)OCO2 (stereo not given in full) | 12.3 µM (inactive) | > 10 µM (inactive) | – | 61.1 µM (inactive) | – | 41.3 µM (inactive) | 27.3 µM (inactive) | 36.3 µM (inactive) | 29.4 µM (inactive) | 39.6 µM (inactive) | 9.57 µM (inactive) | > 100 µM (inactive) | 14.4 µM (inactive) | 24.6 µM (inactive) | 41 µM (inactive) | 34.5 µM (inactive)
9 | Clc1ccc(-c2nnc(-c3nsc4ccccc34)o2)cc1 | 47.2 µM (inactive) | – | 47.8 | 25.1 µM (inactive) | 71.8 µM (inactive) | 15.2 µM (inactive) | – | 18.2 µM (inactive) | 40.6 µM (inactive) | 18.8 µM (inactive) | – | 58.7 µM (inactive) | 51.5 µM (inactive) | – | 25.2 µM (inactive) | –
10 | COCCO [2-METHOXYETHANOL] | – | > 100 µM (inactive) | > 100 | > 100 µM (inactive) | > 100 µM (inactive) | > 100 µM (inactive) | > 100 µM (inactive) | > 100 µM (inactive) | > 100 µM (inactive) | > 87.3 µM (inactive) | > 100 µM (inactive) | > 100 µM (inactive) | > 100 µM (inactive) | > 100 µM (inactive) | – | –
11 | NC(Cc1c[nH]c2ccccc12)C(=O)O (stereo not drawn) [DL-TRYPTOPHAN] | – | > 13.9 µM (inactive) | 64.6 | 231 µM (inactive) | > 300 µM (inactive) | > 300 µM (inactive) | > 300 µM (inactive) | > 300 µM (inactive) | > 300 µM (inactive) | > 300 µM (inactive) | > 300 µM (inactive) | > 300 µM (inactive) | > 300 µM (inactive) | > 300 µM (inactive) | – | –

From ChEMBL document CHEMBL1201862, “PubChem BioAssay data set” (2004)
